Measured values reported in ChEMBL document CHEMBL1201862, “PubChem BioAssay data set” (2004).
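How tested: cells in 96-well plates exposed to compound for 48 hours at five concentrations. GI50 = concentration required for 50% inhibition of growth.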 Active and inactive are the calls of the source. No stated cut-off is given here; in the data, active = GI50 up to about 1.1 µM and inactive = higher.

Assays:
Experiment in all cases: NCI anticancer screen, dose series, 48 h
[1] = tested on: A498
[2] = tested on: A549
[3] = tested on: HOP-62
[4] = tested on: HOP-92
[5] = tested on: K562
[6] = tested on: NCI-H522
[7] = tested on: OVCAR-5
[8] = tested on: OVCAR-8
[9] = tested on: RPMI-8226
[10] = tested on: SF-268
[11] = tested on: SK-MEL-5
[12] = tested on: SNB-19
[13] = tested on: SR
[14] = tested on: SW-620
[15] = tested on: U-251
[16] = tested on: UACC-257
[17] = tested on: UACC-62
[18] = tested on: UO-31
[19] = tested on: KM12
[20] = tested on: SF-539

| SMILES | GI50 [1] | GI50 [2] | GI50 [3] | GI50 [4] | GI50 [5] | GI50 [6] | GI50 [7] | GI50 [8] | GI50 [9] | GI50 [10] | GI50 [11] | GI50 [12] | GI50 [13] | GI50 [14] | GI50 [15] | GI50 [16] | GI50 [17] | GI50 [18] | GI50 [19] | GI50 [20] |
| --- | --- | --- | --- | --- | --- | --- | --- | --- | --- | --- | --- | --- | --- | --- | --- | --- | --- | --- | --- | --- |
| N#CCCN(CCN(CCC#N)C(=O)Nc1ccccc1)C(=O)Nc1ccccc1 | > 100 µM (inactive) | 80.2 µM (inactive) | 20.8 µM (inactive) | 37.6 µM (inactive) | > 100 µM (inactive) | 32.3 µM (inactive) | > 100 µM (inactive) | 57.5 µM (inactive) | > 100 µM (inactive) | 28.5 µM (inactive) | > 100 µM (inactive) | 32.7 µM (inactive) | > 100 µM (inactive) | > 100 µM (inactive) | 39.6 µM (inactive) | > 100 µM (inactive) | > 100 µM (inactive) | 85.7 µM (inactive) | – | – |
| COc1cc(=O)oc(/C=C/C=O)c1C | > 100 µM (inactive) | > 100 µM (inactive) | 19.5 µM (inactive) | 26.9 µM (inactive) | 8.53 µM (inactive) | 19.8 µM (inactive) | 38.3 µM (inactive) | 26.3 µM (inactive) | – | 13.6 µM (inactive) | 20.6 µM (inactive) | 14.8 µM (inactive) | 2.79 µM (inactive) | 19.4 µM (inactive) | 14.3 µM (inactive) | 18.9 µM (inactive) | 16 µM (inactive) | 20.8 µM (inactive) | 21.9 µM (inactive) | 18.7 µM (inactive) |
| CCCCCCCCCCC(C)CCCCCCC(=O)OCC(COP(=O)([O-])OCC[N+](C)(C)C)OC(=O)CCCCCCC(C)CCCCCCCCCC (stereo not drawn) | > 100 µM (inactive) | > 100 µM (inactive) | > 100 µM (inactive) | > 100 µM (inactive) | > 100 µM (inactive) | > 100 µM (inactive) | > 100 µM (inactive) | > 100 µM (inactive) | > 100 µM (inactive) | > 100 µM (inactive) | > 100 µM (inactive) | > 100 µM (inactive) | > 100 µM (inactive) | > 100 µM (inactive) | > 100 µM (inactive) | > 100 µM (inactive) | > 100 µM (inactive) | > 100 µM (inactive) | > 100 µM (inactive) | – |
| Cc1ccc(S(=O)(=O)OCCOCCOCCOCCOCCOS(=O)(=O)c2ccc(C)cc2)cc1 | 44.4 µM (inactive) | 69.8 µM (inactive) | 30.1 µM (inactive) | 35.7 µM (inactive) | 31.7 µM (inactive) | 23.7 µM (inactive) | > 100 µM (inactive) | 22.6 µM (inactive) | 33.5 µM (inactive) | > 100 µM (inactive) | 18.4 µM (inactive) | > 100 µM (inactive) | 54.3 µM (inactive) | 91.2 µM (inactive) | 58.3 µM (inactive) | 25 µM (inactive) | 61.4 µM (inactive) | 28.8 µM (inactive) | 55.7 µM (inactive) | – |
| O=C1NC(c2cccc3ccccc23)Nc2ccccc21 (stereo not drawn) | 0.0262 µM (active) | 0.0968 µM (active) | 0.139 µM (active) | 0.172 µM (active) | < 0.0212 µM (active) | – | 0.133 µM (active) | 0.105 µM (active) | 0.0257 µM (active) | 0.832 µM (active) | < 0.0202 µM (active) | 0.0399 µM (active) | < 0.0153 µM (active) | 0.0277 µM (active) | 0.0336 µM (active) | 0.0465 µM (active) | < 0.0184 µM (active) | 1.05 µM (active) | 0.0399 µM (active) | 0.0363 µM (active) |
| CC/N=C(\N)CSS(=O)(=O)O | > 100 µM (inactive) | > 100 µM (inactive) | > 100 µM (inactive) | > 100 µM (inactive) | > 100 µM (inactive) | > 100 µM (inactive) | > 100 µM (inactive) | > 100 µM (inactive) | > 100 µM (inactive) | > 100 µM (inactive) | > 100 µM (inactive) | > 100 µM (inactive) | 36.5 µM (inactive) | > 100 µM (inactive) | 71.1 µM (inactive) | > 100 µM (inactive) | > 100 µM (inactive) | – | > 100 µM (inactive) | > 100 µM (inactive) |
| CN(c1ccc(C(=O)c2ccc(N(C)S(C)(=O)=O)cc2)cc1)S(C)(=O)=O | > 100 µM (inactive) | > 100 µM (inactive) | – | > 100 µM (inactive) | 49.3 µM (inactive) | 94.2 µM (inactive) | > 100 µM (inactive) | > 100 µM (inactive) | > 100 µM (inactive) | > 100 µM (inactive) | 27.9 µM (inactive) | > 100 µM (inactive) | 59.8 µM (inactive) | > 100 µM (inactive) | > 100 µM (inactive) | 48.9 µM (inactive) | > 100 µM (inactive) | 75.7 µM (inactive) | > 100 µM (inactive) | – |
| N[C@]1(C(=O)O)C[C@@H]2C(Br)=NO[C@@H]2C1 | > 100 µM (inactive) | > 100 µM (inactive) | > 100 µM (inactive) | > 100 µM (inactive) | – | > 100 µM (inactive) | > 100 µM (inactive) | > 100 µM (inactive) | > 100 µM (inactive) | > 100 µM (inactive) | > 100 µM (inactive) | > 100 µM (inactive) | 78.9 µM (inactive) | > 100 µM (inactive) | > 100 µM (inactive) | > 100 µM (inactive) | > 100 µM (inactive) | > 100 µM (inactive) | > 100 µM (inactive) | > 100 µM (inactive) |
| O=C1c2ccccc2C2(c3ccc(Cl)cc3)N[C@H]3CCCC[C@@H]3N12 (stereo partly drawn) | > 100 µM (inactive) | 77.6 µM (inactive) | 41.1 µM (inactive) | > 100 µM (inactive) | > 100 µM (inactive) | – | – | > 100 µM (inactive) | 54.1 µM (inactive) | 48.8 µM (inactive) | > 100 µM (inactive) | 35.4 µM (inactive) | 43.6 µM (inactive) | > 100 µM (inactive) | > 100 µM (inactive) | > 100 µM (inactive) | > 100 µM (inactive) | > 100 µM (inactive) | 85.5 µM (inactive) | – |
| O=C(O)C(=C\c1ccc2c(c1)OCO2)/C(=C/c1ccc2c(c1)OCO2)C(=O)O | > 100 µM (inactive) | – | > 100 µM (inactive) | > 100 µM (inactive) | > 100 µM (inactive) | – | > 100 µM (inactive) | > 100 µM (inactive) | > 100 µM (inactive) | – | > 100 µM (inactive) | > 100 µM (inactive) | > 100 µM (inactive) | > 100 µM (inactive) | > 100 µM (inactive) | > 100 µM (inactive) | > 100 µM (inactive) | > 100 µM (inactive) | > 100 µM (inactive) | – |
| CC1(CO)OC(n2cnc3c(N)ncnc32)C(O)C1O (stereo not drawn) | > 100 µM (inactive) | > 100 µM (inactive) | > 100 µM (inactive) | > 100 µM (inactive) | > 100 µM (inactive) | > 100 µM (inactive) | > 100 µM (inactive) | > 100 µM (inactive) | > 100 µM (inactive) | > 100 µM (inactive) | > 100 µM (inactive) | > 100 µM (inactive) | > 100 µM (inactive) | > 100 µM (inactive) | > 100 µM (inactive) | – | > 100 µM (inactive) | > 100 µM (inactive) | > 100 µM (inactive) | > 100 µM (inactive) |
| FC(F)(F)c1ccc2c(c1)nc1n2C(c2c(Cl)cccc2Cl)SC1 (stereo not drawn) | 17.9 µM (inactive) | 18.2 µM (inactive) | 15.4 µM (inactive) | 13.6 µM (inactive) | – | 22 µM (inactive) | 15.5 µM (inactive) | 25.4 µM (inactive) | – | 19.1 µM (inactive) | – | 19.1 µM (inactive) | 20.7 µM (inactive) | 24.3 µM (inactive) | 19.3 µM (inactive) | 18.9 µM (inactive) | 14.4 µM (inactive) | 15.4 µM (inactive) | 12.2 µM (inactive) | 19.7 µM (inactive) |
| CN(C)CC1CCC/C(=C\c2ccccc2)C1=O (stereo not drawn) | 17.4 µM (inactive) | 19 µM (inactive) | 19.9 µM (inactive) | 2.44 µM (inactive) | – | 1.57 µM (inactive) | 15.6 µM (inactive) | 3.94 µM (inactive) | – | 2.94 µM (inactive) | 8.79 µM (inactive) | 16.2 µM (inactive) | 0.944 µM (active) | 1.55 µM (inactive) | 15.4 µM (inactive) | 2.55 µM (inactive) | 7.01 µM (inactive) | 2.32 µM (inactive) | 1.19 µM (inactive) | 4.04 µM (inactive) |
| O=[N+]([O-])c1ccc(C2=NOC(c3ccccc3F)N2C23CC4CC(CC(C4)C2)C3)cc1 (stereo not drawn) | > 100 µM (inactive) | > 100 µM (inactive) | > 100 µM (inactive) | 7.43 µM (inactive) | > 100 µM (inactive) | > 100 µM (inactive) | > 100 µM (inactive) | > 100 µM (inactive) | 98.9 µM (inactive) | > 100 µM (inactive) | > 100 µM (inactive) | – | > 100 µM (inactive) | > 100 µM (inactive) | > 100 µM (inactive) | > 100 µM (inactive) | > 100 µM (inactive) | > 100 µM (inactive) | > 100 µM (inactive) | > 100 µM (inactive) |
| N#C/C(=C\c1ccc2ccccc2c1)c1ccccc1 | 23.6 µM (inactive) | – | 26.6 µM (inactive) | 65.9 µM (inactive) | – | 12 µM (inactive) | 98.2 µM (inactive) | 32.4 µM (inactive) | 53.1 µM (inactive) | 39.6 µM (inactive) | 16.7 µM (inactive) | – | 46.8 µM (inactive) | 28.8 µM (inactive) | 23 µM (inactive) | 25.5 µM (inactive) | 13.1 µM (inactive) | 25.5 µM (inactive) | 27.7 µM (inactive) | 17.3 µM (inactive) |
